Measured values as given in publication PMC11035696, “Prospective de novo drug design with deep interactome learning” (Nature Communications, 2024).

Key:
[1] = target: CYP2C19 (Homo sapiens, UniProt P33261); test: CYP inhibition dose-response; type: in vitro ADME; details: substrate S-MEPHENYTOIN
Procedure: (§1) SI11Absorption Distribution Metabolism and Excretion and Toxicity Data
(§2) To assess the drug-like characteristics of the newly designed PPAR modulators, a series of tests were conducted covering various aspects of absorption, distribution, metabolism, and excretion (ADME) properties. Specifically, these assessments included the parallel artificial membrane permeability assay (PAMPA) with permeation co- […]
(§3) efficients ([…]), LogD measurements, microsomal clearance, hepatocyte clearance, P-glycoprotein (Pgp) efflux ratio and binding and the unbound free fraction. Furthermore, the evaluation of inhibition po-tential against cytochrome P450 isoenzymes (CYP) proteins was investigated. For seven selected CYP proteins (i.e., Cyp3A4, Cyp1A2, Cyp2B6, Cyp2C9, Cyp2D6, Cyp2C19, and Cyp2C8) the half maximal inhibitory con-centration (IC50) was determined. (Table S15). […]
(§4) activity in the CYP assays was found.
(§5) Table S14: Absorption distribution metabolism and excretion (ADME) properties of compounds 1 and 2. […]
(§6) The values for microsomal clearance and CYP-inhibition represent single point measurements. […]
(§7) Molecule Enzyme Substrate IC50 (µM) […]

[2] = target: CYP2B6 (Homo sapiens, UniProt P20813); test: CYP inhibition dose-response; type: in vitro ADME; details: substrate BUPROPION
Procedure: as §1, §2, §3, §4, §5, §6, §7

[3] = target: CYP1A2 (Homo sapiens, UniProt P05177); test: CYP inhibition dose-response; type: in vitro ADME; details: substrate PHENACETIN
Procedure: as §1, §2, §3, §4, §5, §6, §7

[4] = Lipophilicity (LogD pH 7.4); type: physicochemical
Procedure: (§8) Compounds 1–3 were characterized in a hybrid reporter gene assay for their agoniztic effect on human nuclear receptors PPARα/γ/δ, RXRα, FXRα, RARα in HEK293T cells. Compound 1 was tested in an isothermal titration calorimetry (ITC) assay to measure direct binding affinity to the ligand-binding domain of PPARγ. ADME properties were measured in standardized assays at Roche.
as §1, §2
(§9) efficients ([…]), LogD measurements, microsomal clearance, hepatocyte clearance, P-glycoprotein (Pgp) efflux ratio and binding and the unbound free fraction. […]
(§10) Table S14: Absorption distribution metabolism and excretion (ADME) properties of compounds 1 and 2. The […]
(§11) values for […], LogD, protein binding, P-glycoprotein (Pgp) efflux ratio and permeability, and hepato-cyte clearance are presented as the mean and standard deviation, with a sample size of N = 3, i.e., 3 technical replicates each. The values for microsomal clearance and CYP-inhibition represent single point measurements. […]

[5] = Protein binding, unbound free fraction; type: in vitro ADME; details: human, plasma
Procedure: as §8, §1, §2, §9, §10, §11

[6] = target: XANTHINE OXIDASE (Bos taurus, UniProt P80457); test: Safety off-target panel, enzymatic; type: biochemical, Bovine; details: single point
From the text: Table S9-S12 list all targets, their species, inhibition (%) and assay type for the experiments conducted in the
off-targets. […] The numbers for mean
inhibition (%) represent single point measurements.
off-targets. […] The numbers for
mean inhibition (%) represent single point measurements.

[7] = target: CYP2C9 (Homo sapiens, UniProt P11712); test: CYP inhibition dose-response; type: in vitro ADME; details: substrate DICLOFENAC
Procedure: as §1, §2, §3, §4, §5, §6
(§12) Molecule Enzyme Substrate IC50 (µM)

[8] = target: CYP2C8 (Homo sapiens, UniProt P10632); test: CYP inhibition dose-response; type: in vitro ADME; details: substrate AMODIAQUINE
Procedure: as §1, §2, §3, §4, §5, §6, §12

[9] = target: CYP2D6 (Homo sapiens, UniProt P10635); test: CYP inhibition dose-response; type: in vitro ADME; details: substrate DEXTROMETHORPHAN
Procedure: as §1, §2, §3, §4, §5, §6, §12

[10] = target: CYP3A4 (Homo sapiens, UniProt P08684); test: CYP inhibition dose-response; type: in vitro ADME; details: substrate MIDAZOLAM
Procedure: as §1, §2, §3, §4, §5, §6, §12

Chain of CYP2B6 (P20813 whole entry): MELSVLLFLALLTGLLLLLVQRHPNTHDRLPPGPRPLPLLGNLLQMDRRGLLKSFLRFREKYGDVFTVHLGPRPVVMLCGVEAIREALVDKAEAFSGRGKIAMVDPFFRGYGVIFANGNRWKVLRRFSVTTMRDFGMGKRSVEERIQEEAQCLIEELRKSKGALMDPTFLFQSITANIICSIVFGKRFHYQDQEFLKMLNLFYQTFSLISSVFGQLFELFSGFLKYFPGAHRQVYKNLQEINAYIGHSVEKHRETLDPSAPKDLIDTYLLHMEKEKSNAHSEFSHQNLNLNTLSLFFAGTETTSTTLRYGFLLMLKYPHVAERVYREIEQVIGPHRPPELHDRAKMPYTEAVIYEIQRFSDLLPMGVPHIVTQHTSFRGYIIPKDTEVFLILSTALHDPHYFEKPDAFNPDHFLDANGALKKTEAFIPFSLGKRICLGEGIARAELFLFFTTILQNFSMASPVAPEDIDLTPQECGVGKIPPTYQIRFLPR
Chain of CYP2D6 (P10635 whole entry): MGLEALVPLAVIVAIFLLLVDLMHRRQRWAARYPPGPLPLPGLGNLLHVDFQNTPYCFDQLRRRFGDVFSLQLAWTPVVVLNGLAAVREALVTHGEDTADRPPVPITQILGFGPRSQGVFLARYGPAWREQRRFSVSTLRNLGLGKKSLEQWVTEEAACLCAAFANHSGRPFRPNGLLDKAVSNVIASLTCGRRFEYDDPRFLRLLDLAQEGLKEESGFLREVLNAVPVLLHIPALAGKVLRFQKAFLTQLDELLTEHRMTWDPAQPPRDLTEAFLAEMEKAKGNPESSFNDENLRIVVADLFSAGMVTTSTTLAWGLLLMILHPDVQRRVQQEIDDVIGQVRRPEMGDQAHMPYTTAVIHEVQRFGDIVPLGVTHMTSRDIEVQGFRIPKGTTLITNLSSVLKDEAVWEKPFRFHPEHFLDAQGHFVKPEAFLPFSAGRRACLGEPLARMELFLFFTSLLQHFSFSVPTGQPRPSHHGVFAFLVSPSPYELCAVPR
Chain of XANTHINE OXIDASE (P80457 whole entry): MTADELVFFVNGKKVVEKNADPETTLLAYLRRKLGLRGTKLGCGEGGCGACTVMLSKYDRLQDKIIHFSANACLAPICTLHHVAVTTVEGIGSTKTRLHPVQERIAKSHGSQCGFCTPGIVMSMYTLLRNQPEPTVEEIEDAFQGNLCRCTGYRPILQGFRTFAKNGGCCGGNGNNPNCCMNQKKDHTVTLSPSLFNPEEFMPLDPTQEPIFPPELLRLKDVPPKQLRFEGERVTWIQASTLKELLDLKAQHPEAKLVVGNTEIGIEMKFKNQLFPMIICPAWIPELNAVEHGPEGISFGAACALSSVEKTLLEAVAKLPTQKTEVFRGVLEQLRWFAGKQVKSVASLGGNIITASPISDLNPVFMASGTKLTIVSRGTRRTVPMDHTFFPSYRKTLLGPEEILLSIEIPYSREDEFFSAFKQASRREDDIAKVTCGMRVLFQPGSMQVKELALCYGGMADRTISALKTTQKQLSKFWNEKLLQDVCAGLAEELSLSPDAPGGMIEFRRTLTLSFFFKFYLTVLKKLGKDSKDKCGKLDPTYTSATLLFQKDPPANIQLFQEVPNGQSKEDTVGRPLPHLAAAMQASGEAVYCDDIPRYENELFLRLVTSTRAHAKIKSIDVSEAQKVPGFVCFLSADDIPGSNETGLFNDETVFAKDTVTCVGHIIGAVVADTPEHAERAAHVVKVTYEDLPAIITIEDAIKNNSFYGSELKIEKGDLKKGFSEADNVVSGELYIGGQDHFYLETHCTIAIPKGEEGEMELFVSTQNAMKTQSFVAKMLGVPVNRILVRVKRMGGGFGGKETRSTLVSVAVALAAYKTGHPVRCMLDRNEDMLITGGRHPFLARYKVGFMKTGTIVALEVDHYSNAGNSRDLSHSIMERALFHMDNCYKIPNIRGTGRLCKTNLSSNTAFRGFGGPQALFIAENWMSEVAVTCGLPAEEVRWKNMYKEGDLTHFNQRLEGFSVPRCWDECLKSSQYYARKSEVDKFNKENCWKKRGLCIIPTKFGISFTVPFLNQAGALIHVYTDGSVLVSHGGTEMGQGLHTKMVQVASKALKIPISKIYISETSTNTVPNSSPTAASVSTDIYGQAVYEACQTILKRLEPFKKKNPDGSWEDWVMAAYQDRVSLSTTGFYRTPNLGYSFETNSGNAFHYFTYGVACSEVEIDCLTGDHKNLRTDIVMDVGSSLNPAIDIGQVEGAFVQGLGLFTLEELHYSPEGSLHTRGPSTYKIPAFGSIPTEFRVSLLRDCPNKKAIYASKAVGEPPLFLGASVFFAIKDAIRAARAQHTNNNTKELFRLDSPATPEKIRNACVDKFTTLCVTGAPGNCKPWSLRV
Chain of CYP2C9 (P11712 whole entry): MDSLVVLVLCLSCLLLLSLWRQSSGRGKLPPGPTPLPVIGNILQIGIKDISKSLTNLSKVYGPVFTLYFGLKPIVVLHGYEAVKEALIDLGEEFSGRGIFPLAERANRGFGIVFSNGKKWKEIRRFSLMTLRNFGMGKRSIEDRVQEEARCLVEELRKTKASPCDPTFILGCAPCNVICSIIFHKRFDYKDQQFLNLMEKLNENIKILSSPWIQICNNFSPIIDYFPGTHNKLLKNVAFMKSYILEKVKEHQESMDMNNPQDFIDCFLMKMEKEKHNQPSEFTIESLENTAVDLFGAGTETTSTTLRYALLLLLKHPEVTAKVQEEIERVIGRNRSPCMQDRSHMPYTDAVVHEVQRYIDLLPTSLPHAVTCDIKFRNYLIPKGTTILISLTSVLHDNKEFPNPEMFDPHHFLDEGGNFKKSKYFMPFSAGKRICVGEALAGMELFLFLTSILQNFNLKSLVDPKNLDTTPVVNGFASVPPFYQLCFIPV
Chain of CYP2C8 (P10632 whole entry): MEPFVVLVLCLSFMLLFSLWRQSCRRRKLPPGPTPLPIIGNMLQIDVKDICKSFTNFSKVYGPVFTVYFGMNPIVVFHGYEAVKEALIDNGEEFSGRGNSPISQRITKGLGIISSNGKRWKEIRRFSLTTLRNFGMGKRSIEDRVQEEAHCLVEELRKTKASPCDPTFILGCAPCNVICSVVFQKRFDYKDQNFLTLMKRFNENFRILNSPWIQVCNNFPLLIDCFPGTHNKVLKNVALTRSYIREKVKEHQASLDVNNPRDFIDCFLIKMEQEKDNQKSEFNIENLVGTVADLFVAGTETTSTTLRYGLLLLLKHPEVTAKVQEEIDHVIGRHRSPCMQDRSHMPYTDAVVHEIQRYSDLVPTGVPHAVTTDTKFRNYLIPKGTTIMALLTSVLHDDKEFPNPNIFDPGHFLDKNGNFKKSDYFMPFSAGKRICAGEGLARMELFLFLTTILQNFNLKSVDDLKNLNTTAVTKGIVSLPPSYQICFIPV
Chain of CYP1A2 (P05177 whole entry): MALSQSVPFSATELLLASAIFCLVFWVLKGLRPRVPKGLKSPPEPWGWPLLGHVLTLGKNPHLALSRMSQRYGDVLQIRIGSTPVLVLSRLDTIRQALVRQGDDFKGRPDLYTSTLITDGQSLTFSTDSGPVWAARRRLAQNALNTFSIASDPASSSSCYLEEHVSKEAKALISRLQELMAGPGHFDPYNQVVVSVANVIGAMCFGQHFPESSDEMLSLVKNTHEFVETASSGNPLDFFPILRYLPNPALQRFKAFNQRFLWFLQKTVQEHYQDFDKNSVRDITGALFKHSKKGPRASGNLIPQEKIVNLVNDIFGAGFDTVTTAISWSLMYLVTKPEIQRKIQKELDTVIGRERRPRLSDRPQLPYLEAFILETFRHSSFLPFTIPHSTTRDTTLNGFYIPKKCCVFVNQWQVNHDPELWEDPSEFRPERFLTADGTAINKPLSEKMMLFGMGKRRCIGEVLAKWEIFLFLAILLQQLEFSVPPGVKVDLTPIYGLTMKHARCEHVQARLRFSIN
Chain of CYP3A4 (P08684 whole entry): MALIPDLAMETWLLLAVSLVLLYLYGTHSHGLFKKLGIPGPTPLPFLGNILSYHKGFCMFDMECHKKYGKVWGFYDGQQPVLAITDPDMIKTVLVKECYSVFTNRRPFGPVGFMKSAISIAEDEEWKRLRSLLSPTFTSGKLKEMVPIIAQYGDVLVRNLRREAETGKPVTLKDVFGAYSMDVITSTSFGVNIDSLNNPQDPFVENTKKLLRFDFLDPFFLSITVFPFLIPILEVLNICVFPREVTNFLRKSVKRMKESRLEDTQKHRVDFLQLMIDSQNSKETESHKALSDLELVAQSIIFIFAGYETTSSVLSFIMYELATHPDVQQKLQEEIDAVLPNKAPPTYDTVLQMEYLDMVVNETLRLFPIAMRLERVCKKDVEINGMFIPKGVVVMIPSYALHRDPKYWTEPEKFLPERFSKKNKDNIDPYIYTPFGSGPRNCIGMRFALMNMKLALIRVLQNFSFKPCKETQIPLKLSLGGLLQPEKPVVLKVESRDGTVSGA
Chain of CYP2C19 (P33261 whole entry): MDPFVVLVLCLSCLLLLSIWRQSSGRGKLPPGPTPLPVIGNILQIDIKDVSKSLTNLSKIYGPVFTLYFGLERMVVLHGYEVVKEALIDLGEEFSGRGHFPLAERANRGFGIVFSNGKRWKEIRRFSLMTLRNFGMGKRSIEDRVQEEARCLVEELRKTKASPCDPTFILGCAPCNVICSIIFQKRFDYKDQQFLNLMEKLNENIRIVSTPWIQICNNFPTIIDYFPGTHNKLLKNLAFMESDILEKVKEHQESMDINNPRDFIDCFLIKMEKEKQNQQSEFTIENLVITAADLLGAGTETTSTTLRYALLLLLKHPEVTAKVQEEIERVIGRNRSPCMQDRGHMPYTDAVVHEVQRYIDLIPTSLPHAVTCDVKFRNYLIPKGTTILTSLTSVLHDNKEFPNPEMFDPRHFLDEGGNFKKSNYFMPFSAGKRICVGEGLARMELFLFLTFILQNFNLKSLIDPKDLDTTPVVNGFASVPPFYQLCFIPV

Structure (SMILES) | IC50 [1] | IC50 [2] | IC50 [3] | logD [4] | fraction unbound [5] | inhibition at 10 µM [6] | IC50 [7] | IC50 [8] | IC50 [9] | IC50 [10]
COc1ccc(Oc2ccc3ncn(CCOc4ccc(CCC(=O)O)cc4)c3c2)cc1 [Compound 2] | > 20 µM | > 20 µM | > 20 µM | 1.7 | 0.0042 | 0.4% | > 20 µM | 1.75 µM | > 20 µM | > 20 µM
Cc1nnc(-c2ccc(OCCCOc3ccc(CCC(=O)O)c(F)c3)c(F)c2)s1 [Compound 1] | > 20 µM | > 20 µM | > 20 µM | 1.5 | 0.0021 | -3.1% | > 20 µM | > 20 µM | > 20 µM | > 20 µM
